Columns and labels:
[1] = system: bacterial strains from dental infectious diseases; settings: reported in the literature; increasingly resistant strains; cited from earlier work
Porphyromonas gingivalis = settings: reported in the literature; cited from earlier work
[2] = system: methicillin-sensitive Staphylococcus aureus (MSSA), Streptococcus pyrogenes and Streptococcus pneumoniae, penicillin-resistant pneumococci (PRSP), oral …; settings: reported in the literature; gram-positive bacteria incl. strains where conventional β-lactams are ineffective; cited from earlier work
[3] = Gastrointestinal absorption of compound 1 after oral administration (plasma AUC); type: in vivo, Sprague-Dawley rats; settings: rat; for AUC: male, Sprague-Dawley, compound 1 as free acid in plasma
Description: Seven-week old male Sprague-Dawley rats orally received 70.5 mg/kg (57.1 mg (potency)/kg) of compound 1 and 57.1 mg/kg of disodium ethylenediaminetetraacetate. Controls orally received 70.5 mg/kg of compound 1 alone. At 0.1-10 hours after administration, blood was collected. The concentration of compound 1 as free acid in plasma was determined by high-performance liquid chromatography. For determination, plasma was used after pretreatment. That is, 0.2 mL of plasma was stirred with 0.2 mL of acetonitrile and then centrifuged at 4° C., 12000 rpm for 15 min. Two hundreds μL of this supernatant was diluted in 800 μL of 10 mM phosphate buffer, and 200 μL of this dilution was applied on a high-performance liquid chromatography column. The chromatography conditions were as follows. A stainless steel high-performance liquid chromatographic column packed with octadecylsilyl silica gel was used. The column temperature was room temperature. The mobile phase consisted of a binder containing 680 mL of a 20 mM aqueous sodium dihydrogenphosphate solution adjusted at pH 2 with phosphoric acid and 320 mL of acetonitrile. The flow rate was controlled at 1 mL/min. For detection, a UV absorption spectrometer was used at a wavelength of 318 nm.

Change of AUC versus control group ([3]; group coadministered with disodium ethylenediaminetetraacetate compared with compound 1 alone): approximately doubled
AUC ([3]; 70.5 mg/kg compound 1 with 57.1 mg/kg disodium ethylenediaminetetraacetate): 24800 ± 9300 ng·h/mL
AUC ([3]; control group: 70.5 mg/kg compound 1 alone): 12600 ± 5700 ng·h/mL
Structure (SMILES): C[C@@H](O)[C@H]1C(=O)N2C(C(=O)O)=C([C@H]3CCCO3)S[C@H]12 [compound 1, Sodium (+)-(5R,6S)-6-[(R)-1-hydroxyethyl]-7-oxo-3-[(R)-2-tetrahydrofuryl]-4-thia-1-azabicyclo[3.2.0]hept-2-ene-2-carboxylate 5/2 hydrate]
Antibacterial activity [1]: potent antibacterial activity
Antibacterial activity (Porphyromonas gingivalis): potent antibacterial activity
Antibacterial activity [2]: potent antibacterial activity

Reference: US6531508B1, “Antibacterial medicinal compositions” (priority 1999, dated 2003)
